{"source": "patent US5962516A", "about": "“Immunosuppressive compounds and methods” (priority 1999, dated 1999)", "key": {"[1]": {"test": "Stability in blood serum by TLC", "format": "in vitro ADME", "conditions": "rat serum, 37° C", "protocol": "The stability of triptolide succinate in blood serum was determined as detailed in Example 10B. In this study, a solution of triptolide succinate (YM-262, free acid) in DMSO was mixed with rat serum and incubated at 37° C. The mixture was assayed periodically by thin layer chromatography (TLC) to follow the hydrolysis of the triptolide succinate over time.\nA solution of triptolide succinate (free acid; YM-262) in DMSO was made at a concentration of 25 mg/ml, and 0.1 ml of this solution was mixed with 0.5 ml of rat serum. The mixture was incubated at 37° C. Aliquots of the mixture were taken at 1, 3, 5, 15, 45 minutes and 18 hours and analyzed by thin layer chromatography (TLC). The TLC plates were developed in 1:5 CH2 Cl2 /Et2 O. After development, the plates were treated with iodine vapor and examined under a UV lamp. Triptolide and triptolide succinate were used as reference compounds (Rf =0.60 and 0.45, respectively)."}, "[2]": {"test": "Cytotoxicity by MTT reduction reported with the IL-1 assay (Table I)", "format": "cell-based", "conditions": "mouse, thymocytes, cytotoxic when toxicity greater than 25%", "protocol": "Potential cytotoxicity of the test samples was assessed by the measurement of their effect on the reduction of MTT (3-[4,5-Dimethylthiazole-2-yl]-2,5-diphenyltetrazolium bromide) by cultured cells. MTT, a yellow-colored compound, is reduced by mitochondrial enzymes to form the purple crystalline reduction product formazane, providing an index of cellular respiration on viable cells as well as a sensitive assay for cytotoxicity (Mossmann, 1983).\nThe cytotoxicity was assessed in cultured human PBMC and mouse thymocytes. A stock solution of MTT (Sigma) at 5 mg/ml in phosphate buffered saline, pH 7.4, was prepared and stored in the dark at 4° C. PBMCs or thymocytes were cultured with various concentrations of test samples in flatbottom 96-well tissue culture plates (Costar) under the same conditions as those described above, but the stimulants (X-35 or IL-1+PHA) were replaced by appropriate medium. Untreated cells with medium alone and without the test samples were used as controls. After incubation for 21 hours, 25 μl of MTT solution was added to each well. After an additional three hours of incubation, the experiment was terminated by addition of a solution of 10% sodium dodecyl sulfate in 0.01 N HCl. Following overnight incubation at 37° C. to solubilize the formazane crystals, optical density was determined at 570-650 nm in microplate reader. […]"}, "[3]": {"system": "heart transplant rejection", "test": "Cardiac allograft survival (heterotopic heart transplantation in rats)", "format": "in vivo, rat (Brown Norway donors, Lewis recipients)", "conditions": "for mean survival time of allograft / mean survival time compared with underivatized triptolide: i.p.; for mean survival time of allograft: day -1 to 14; for mean survival time compared with underivatized triptolide: equimolar doses (YM-273 0.40, YM-274 0.33, T10 0.25 mg/kg)", "description": "Treatment of transplantation rejection, in accordance with the invention, is illustrated for rejection of an allograft by the in vivo heart transplantation model used in Example 14. The method involves a well-characterized rat model system (Ono and Lindsey, 1969) in which a transplanted heart is attached to the abdominal great vessels of an allogeneic recipient animal, and the viability of the transplanted heart is gauged by the heart's ability to beat in the recipient animal.\nIn one study, the animals were administered by intraperitoneal injections, from one day preceding to 14 days following heart transplantation, either control solution (5% ethanol, 10 ml/kg), triptolide (designated as T10), or with two concentrations each of YM-273 and YM-274. There were three animals in each group, except for the control group in which five animals were used.\nHeterotopic whole heart transplantation was performed according to the standard method (Ono and Lindsey, 1969). The donors (Brown Norway rats, 200-255 g, Charles River, Wilmington, Mass.) and recipients (Adult male Lewis rats, 225-275g, Charles River) were anesthetized with sodium pentobarbital (40 mg/kg). Following adequate donor anticoagulation using heparin, the heart graft was removed and stored at 4° C. in PhysioSol Irrigation Solution (Abbott Laboratories, N. Chicago, Ill.). The ascending aorta and pulmonary artery were transected, and the vena cava and pulmonary veins were ligated. […] The cold ischemic time of all the cardiac grafts was less than 45 minutes. Graft heartbeat was monitored by abdominal palpation. The period of functional graft survival was measured as the number of days during which cardiac graft contractions could be detected by abdominal palpation. Results were confirmed by direct visualization at laparotomy.\nHeart transplant recipient animals prepared as described above (3-5 animals/group) were treated with (i) control solution (5% ethanol, 10 ml/kg), (ii) YM-273 at 0.10 mg/kg and 0.40 mg/kg (FIG. 5A), (iii) YM-274 at 0.084 and 0.33 mg/kg (FIG. 5B), and (iv) and T10 (triptolide) 0.25 mg/kg (FIG. 6). In addition to showing the results for T10, FIG. 6 repeats the results from FIGS. 5A-5B for YM-273 and YM-274 at 0.40 and 0.33 mg/kg, respectively, such that their concentrations were equimolar relative to T10. All compounds were administered intraperitoneally. Treatment started on the day prior to surgery and continuing daily until postoperative day 14, or until the end of allograft survival."}, "testis weight": {"system": "testis weight", "test": "Effect on testis weight in male mice", "format": "in vivo, mouse (BDF1)", "design": "decrease in testis weight: dose or concentration left out as unconfirmed", "conditions": "5 days on/2 days off, 5 weeks, vs saline control", "protocol": "The compounds of the invention are also effective in reducing or inhibiting male fertility, wherein administration of a compound of the invention to a male mammal is effective to reduce the potency of the male's semen, thereby reducing or blocking fertilization. Triptolide succinate (YM-262) was tested for inhibition of fertility in male BDF1 mice, according to protocols described in Example 15. The compound was administered intraperitoneally (IP) in a saline solution, using a cycle of daily administration for 5 days followed by a two day cessation of treatment. […] The cycle was repeated for 5 weeks before evaluation of physiological effects (testis weight) and reproductive performance.\nTriptolide succinate (YM-262) was tested for fertility control in male BDF1 mice, using a cycle of daily administration for 5 days followed by a two day cessation of treatment. The cycle was repeated for 5 weeks, with dosing on days 0-4, 7-11, 14-18, 21-25 and 28-32 before evaluation of physiological effects and reproductive performance. […]\nOn day 32, five to six mice from each dosing group were sacrificed, and the testes were removed and stored in formalin for histological analysis and weight determination. The average of both testes was calculated for each mouse, and the mean and standard error of the mean (S.E.) were determined."}}, "note": "Counter-ions that a name gives are not always drawn.", "data": [{"smiles": "CC(C)[C@]12O[C@H]1[C@@H]1O[C@]13[C@]1(O[C@H]1C[C@H]1C4=C(CC[C@@]13C)C(=O)OC4)[C@@H]2O", "note": "[Triptolide, triptolide, reference compound]", "values": [{"measurement": "triptolide formed from triptolide succinate in serum, 15 minutes", "setting": "[1]; 15 minutes after addition of YM-262, TLC", "result": "a new spot corresponding to triptolide had appeared"}, {"measurement": "triptolide formed from triptolide succinate in serum, 45 minutes", "setting": "[1]; 45 minutes after addition of YM-262, TLC", "result": "the triptolide spot had also disappeared"}, {"measurement": "CC50 at 24 h", "setting": "[2]", "result": "> 12.5", "unit": "µg/mL"}]}, {"smiles": "CC(C)C12OC1C1OC13C1(C)CCC4=C(COC4=O)C1CC1OC13C2OC(=O)CCC(=O)O", "note": "(centres unmarked) [YM-274, Triptolide Succinate Sodium Salt]", "values": [{"measurement": "mean survival time of allograft", "setting": "[3]; YM-274, 0.0837 mg/kg", "result": 10, "unit": "days"}, {"measurement": "mean survival time compared with underivatized triptolide", "setting": "[3]; Succinate Sodium Salt", "result": "substantially better"}]}, {"smiles": "CC(C)C12OC1C1OC13C1(C)CCC4=C(COC4=O)C1CC1OC13C2OC(=O)CCC(=O)O", "note": "(centres unmarked) [YM-262, Triptolide Succinate]", "values": [{"measurement": "time for hydrolysis in blood serum to triptolide", "setting": "[1]", "result": "≤ 15", "unit": "min"}, {"measurement": "time for hydrolysis in serum to release free triptolide", "setting": "[1]", "result": "less than an hour"}, {"measurement": "stability in blood serum, 3 minutes", "setting": "[1]; 3 minutes, TLC", "result": "only triptolide succinate was detected by TLC"}, {"measurement": "stability in blood serum, 15 minutes", "setting": "[1]; 15 minutes, TLC", "result": "the triptolide succinate spot was gone"}, {"measurement": "stability in blood serum, 3 to 5 minutes", "setting": "[1]; first 3 to 5 minutes, TLC", "result": "most of the triptolide succinate remained"}, {"measurement": "CC50 at 24 h", "setting": "[2]", "result": "> 12.5", "unit": "µg/mL"}, {"measurement": "reduction in testis weight", "setting": "testis weight; 0.13 mg/kg/day i.p.", "result": "approximately 13%"}, {"measurement": "decrease in testis weight", "setting": "testis weight; (as printed) i.p.", "result": "approximately 13%"}]}, {"smiles": "CC(C)C12OC1C1OC13C1(C)CCC4=C(COC4=O)C1CC1OC13C2OC(=O)CCC(=O)O", "note": "(centres unmarked) [YM-273, Triptolide Succinate Tris Salt]", "values": [{"measurement": "mean survival time of allograft", "setting": "[3]; YM-273, 0.1 mg/kg", "result": 7, "unit": "days"}, {"measurement": "mean survival time compared with control", "setting": "[3]; YM-273, 0.4 mg/kg i.p.", "result": "substantial improvement over the control"}, {"measurement": "mean survival time of allograft", "setting": "[3]; YM-273, 0.4 mg/kg", "result": 24, "unit": "days"}, {"measurement": "mean survival time compared with underivatized triptolide", "setting": "[3]", "result": "somewhat better than that seen with underivatized triptolide"}]}]}
